The results in this text go back to patent publication US5968838A, “Antiarrhythmic peptide from venom of spider Grammostola spatulata” (priority 1998, dated 1999).

What all share (assay type): cell-based, Rat
The test system of one experiment is L-type Ca^2+ channels. The experiment is described as follows: Depolarization (high K+) induced Ca2+ increase in GH3 cells, three consecutive depolarizations.
The test system of experiment [1] is stretch activated channel. In words: Fura-2 fluorescence ratio measurement of stretch activated channel activity: hypotonic cell swelling induced calcium increase (HICI) in GH3 cells. As to the method:
(§1) Rat pituitary cell line GH3 was provided by Dr. S. Simasko, Department of VCAPP, Washington State University, Pullman, Wash., 99164 and the American Type Culture Collection, Rockville, Md. The cells were cultured in standard medium containing 82.5% Ham's F-10 nutrients (Gibco, Gaithersburg, Md.), 15 % heat inhibited horse serum (Gibco) and 2.5% fetal bovine serum (Gibco) at 37C in 10% CO2. Cells were fed twice per week and subcultured once per week. For Fura-2 fluorescence measurements, cells were plated on poly-L-lysine coated glass cover slips at 95% confluency, cultured under normal conditions and used between 3 to 6 days after plating.
Ca^2+ was measured on an SLM AB-2 fluorescence spectrometer (SLM Instruments, Rochester, N.Y.). Cells plated on poly-L-lysine coated glass cover slips were loaded with Fura-2 in a loading solution containing 2 micromolar Fura-2/AM (disclosed in Grynkiewicz, G. et al., (1985) Journal of Biological Chemistry 260: 3440-3450) according to the following procedure. Cells were washed twice in phosphate buffered saline (PBS) solution. Cells were then incubated in the loading solution for 30 minutes at 25C. The cells were rinsed twice with PBS and incubated in the culture medium for 30 minutes at 25C. Experiments were performed within 1 hour after loading. […]
After loading, the plated cells were exposed to various hypotonic and isotonic solutions and test solutions containing spider venom. Changes in the calcium ion concentration were measured according to the following method.
After loading with Fura-2, the cover slip containing the GH3 cells was mounted in a custom made holder and placed in a quartz cuvette at an angle of 20 degrees to the excitation beam. The cells on the cover slip were exposed to various test solutions and the changes in calcium ion concentration were measured according to the following method. Fluorescence emission was collected from a group of about 10^5 cells located in the excitation path. Excitation beams at 340 nm (Ex340nm) and 380 nm (Ex380 nm) were used and the fluorescence intensities at 510 nm (Em5 10 nm) were monitored. […] Fluorescence emission data was collected for times up to 600 to 1200 seconds depending on the solution added to the cells.
An increase in the Ca^2+ concentration caused an increase in the fluorescence at Em510 nm/Ex340nm and at the same time, a decrease at Em510/Ex380nm. The ratio of the two (R) was used to calculate the Ca^2+ concentration using the following formula: [formula] where kd is the equilibrium constant; Rmax is the ratio and Fb is the fluorescence intensity at Ex380nm when Fura-2 is saturated with Ca^2+, Rmin is the ratio and Ff is the fluorescence intensity at Ex380nm when Fura-2 is not bound by Ca^2+. […]

Another experiment relates to GH3 cells. The experiment is described as follows: Cell Ca2+ of GH3 cells in isotonic saline (Fura-2). The note with it: 10 μM peptide. On the procedure:
as §1
Ca^2+ was measured on an SLM AB-2 fluorescence spectrometer (SLM Instruments, Rochester, N.Y.). […]
After loading with Fura-2, the cover slip containing the GH3 cells was mounted in a custom made holder and placed in a quartz cuvette at an angle of 20 degrees to the excitation beam. The cells on the cover slip were exposed to various test solutions and the changes in calcium ion concentration were measured according to the following method. Fluorescence emission was collected from a group of about 10^5 cells located in the excitation path. Excitation beams at 340 nm (Ex340nm) and 380 nm (Ex380 nm) were used and the fluorescence intensities at 510 nm (Em5 10 nm) were monitored. […]

Read-outs that look alike come from different tables or passages of the source. Ends that are not written are not given here.

Description for L-type Ca^2+ channels: After loading with Fura-2, the cover slip containing the GH3 cells was mounted in a custom made holder and placed in a quartz cuvette at an angle of 20 degrees to the excitation beam. The cells on the cover slip were exposed to various test solutions and the changes in calcium ion concentration were measured according to the following method. Fluorescence emission was collected from a group of about 10^5 cells located in the excitation path. Excitation beams at 340 nm (Ex340nm) and 380 nm (Ex380 nm) were used and the fluorescence intensities at 510 nm (Em5 10 nm) were monitored. […] Fluorescence emission data was collected for times up to 600 to 1200 seconds depending on the solution added to the cells. […]

Turning to `[Gd+3]` [Gd^3+], the “block of depolarization induced Ca2+ increase (comparators, stated by contrast)” value in the experiment on L-type Ca^2+ channels (GH3 cells, concentration not given) was “block”.

On to `COC(=O)C1=C(C)NC(C)=C(C(=O)OC)C1c1ccccc1[N+](=O)[O-]` [nifedipine], for which the “block of depolarization induced Ca2+ increase (comparators, stated by contrast)” value in the experiment on L-type Ca^2+ channels is recorded as “block”.

Consider “YCQKWMWTCDEERKCCEGLVCRLWCKKKIEW (cysteine pairing not given here) [α Mechanotoxin]”, for which, in experiment [1] (block of HICI in GH3 cells), the association rate entry is “approximately 10^3 m^-1 s^-1” and the dissociation rate was about 0.01 s⁻¹. Besides, in experiment [1] (block of HICI in GH3 cells, read-out: equilibrium constant), the Kd is about 10 µM. The “block of hypotonic cell swelling induced calcium increase (HICI)” value in experiment [1] (purified peptide, GH3 cells) was “reversibly blocks”. The “effect on cell Ca2+ in isotonic saline” value with GH3 cells is on record as “decreases cell Ca^2+ to levels seen in the absence of extracellular Ca^2+”.
